Measured values: US20210215674A1, “COMPOSITIONS AND METHODS FOR SCREENING COMPOUNDS FOR CARDIAC SIDE EFFECTS” (Arizona Board of Regents on Behalf of the University of …, priority 2018, published 2021)

Test system: hiPSC-CM / fibroblast graft (bioengineered tissue)
Assay: ECG recording of bioengineered tissue on multi-electrode array with pharmacological perturbations
Format: cell-based, human
Settings: for change of heart rate of the construct: continuous ECG recording, FIG. 8; for change of QT interval / change of R-R interval (heart rate-equivalent): single bioengineered tissue on multi-electrode array vs baseline, FIG. 10
Procedure: Methods of graft engineering: Human dermal fibroblasts were cultured into a vicryl (polygalctin 910) knitted mesh until the mesh was fully confluent with fibroblasts. Human induced pluripotent stem cell derived cardiomyocytes (hiPSC-CMs) were seeded onto the fibroblasts grafts using centrifugal force (1300 rpms for 5 min). All cell cultures were maintained at […] and 5% CO2 with media changed every 24-48 hrs. Fibroblasts were maintained with 10% FBS in DMEM, hiPSC-CMs were maintained with RPMI+B27. Grafts were either used fresh or after cryopreservation. Fresh grafts were assayed 48 hrs after hiPSC-CM engraftment. Cryopreserved grafts were assayed 2 days post reconstitution. Axion System Methods: […] diameter circular grafts were transferred to the Axion culture well, hiPSC-CM side down and three small 5 mm×1 mm weights were placed on the surface to enhance contact with the electrodes. Cultures were maintained at 37° C. and 5% CO2. Data were obtained at baseline, and then with pharmacological perturbations. NeuroNexus Methods: 1.6 cm diameter circular grafts were placed hiPSC-CM side down on the recording array. Cultures were maintained at 37° C. but no control was available for CO2. […] To enhance contact, the volume of medium in the culture well was reduced from 1.5 ml to 0.25-0.5 ml. Data were obtained at baseline, and then with pharmacological perturbations.

Row | SMILES | change of heart rate of the construct | change of QT interval | change of R-R interval (heart rate-equivalent)
1 | CC(C)NCC(O)c1ccc(O)c(O)c1 (stereo not drawn) [Isoproterenol] | increase | decrease | decrease
2 | CC(C)(C)NC[C@H](O)COc1nsnc1N1CCOCC1 [Timolol] | decrease | increase | increase
